Reference: PMC9861092, “Napyradiomycin A4 and Its Relate Compounds, a New Anti-PRV Agent and Their Antibacterial Activities, from Streptomyces kebangsaanensis WS-68302” (Molecules, 2023)
Converted amounts (≈) assume the structure as drawn. “Also recorded” adds a separate entry of the source. Structures can show the parent of a compound that is named as a salt.

Assays:
[1] = test system: Staphylococcus aureus ATCC 25923; assay: microbe, parasite or virus in culture; format: cell-based; settings: for MIC: Staphylococcus aureus, ATCC25923, read-out: MIC S. aureus
[2] = test system: Erysipelothrix rhusiopathiae WH13013; assay: microbe, parasite or virus in culture; format: cell-based; settings: for MIC: Erysipelothrix rhusiopathiae, WH13013, read-out: MIC E. rhusiopathiae
[3] = test system: Streptococcus suis SC19; assay: microbe, parasite or virus in culture; format: cell-based; settings: for MIC: Streptococcus suis, SC19, read-out: MIC S. suis
[4] = test system: Escherichia coli ATCC 25922; format: cell-based
[5] = test system: PRV (Pseudorabies virus)
[6] = in vitro; settings: African green monkey
[7] = test system: PRV protein; format: cell-based, Pseudorabies virus
[8] = test system: PRV (Pseudorabies virus); assay: microbe, parasite or virus in culture; settings: Suid alphaherpesvirus 1, MARC145, 72 h, read-out: IC50 against PRV
[9] = test system: Bacillus subtilis ATCC6633; settings: cited from earlier work

With `CO/N=C(\C(=O)N[C@@H]1C(=O)N2C(C(=O)[O-])=C(C[n+]3cccc4c3CCC4)CS[C@H]12)c1csc(N)n1.O=S(=O)(O)O` [Cefpirome Sulfate, cefpirome sulfate, reference compound] the “MIC S. aureus” value [1] was under 0.78 µg/mL, the “MIC E. rhusiopathiae” value [2] was under 0.78 µg/mL and the “MIC S. suis” value [3] was under 0.78 µg/mL. For the same compound, the “MIC E. coli” value [4] was 25 µg/mL.
With `CC(=CCC12OC(C)(C)C(Cl)CC1(Cl)C(=O)c1c(O)cc(O)cc1C2=O)CCC(=O)C(C)C` (stereo not shown) [Compound 1, napyradiomycin A4] the “TI (therapeutic index = CC50/IC50)” value [5] was 14.98, the MIC [1] was 25 µg/mL (≈ 50.3 µM) and the CC50 [6] was 30.8 ± 5.57 µM. For the same compound, the “MIC E. rhusiopathiae” value [2] was 50 µg/mL (≈ 101 µM), the MIC [2] was 25 to 50 µg/mL (≈ 50.3 to 101 µM) and the “MIC S. suis” value [3] was “weak activity”. For the same compound, the MIC [3] was 100 µg/mL (≈ 201 µM), the “Suppression of PRV protein (green fluorescence intensity) in indirect immunofluorescence assay” value (from here on “Suppression of PRV protein”) [7] was “strongest inhibition; also recorded: significantly suppressed” and the IC50 [8] was 2.06 ± 0.343 µM.
For `CC(C)=CCC12OC1(CC=C(C)C(O)CC=C(C)CO)C(=O)c1cc(O)cc(O)c1C2=O` (stereo not shown) [Compound 2, A80915H], the “IC50 against PRV” value [5] was “did not display any apparent anti-PRV activity”, the “MIC S. aureus” value [1] was “did not show any activity and -” and the CC50 [6] was over 90 µM. For the same compound, the “MIC E. rhusiopathiae” value [2] was “did not show any activity and -”, the “MIC S. suis” value [3] was “did not show any activity and -” and the IC50 [8] was over 90 µM.
With `CC(C)=CCC/C(C)=C/C[C@@]12OC(C)(C)[C@H](Cl)C[C@]1(Cl)C(=O)c1c(O)cc(O)cc1C2=O` [Compound 3, napyradiomycin A1] the “TI (therapeutic index = CC50/IC50)” value [5] was 2.62, the “MIC S. aureus” value [1] was “potent activities” and the MIC [1] was under 0.78 µg/mL. For the same compound, the CC50 [6] was 5.79 ± 0.708 µM, the “MIC E. rhusiopathiae” value [2] was 50 µg/mL (≈ 104 µM) and the MIC [2] was 25 to 50 µg/mL (≈ 51.9 to 104 µM). For the same compound, the MIC [3] was 3.12 µg/mL (≈ 6.49 µM), the “Suppression of PRV protein” value [7] was “significantly suppressed” and the IC50 [8] was 2.21 ± 0.375 µM.
For `C=C1CC[C@H](Cl)C(C)(C)C1C[C@@]12OC(C)(C)[C@H](Cl)C[C@]1(Cl)C(=O)c1c(O)cc(O)cc1C2=O` (stereo partly shown) [Compound 4, napyradiomycin B1], the “MIC S. aureus” value [1] was “potent activities”, the MIC [1] was under 0.78 µg/mL and the CC50 [6] was 19.6 ± 2.82 µM. For the same compound, the “MIC E. rhusiopathiae” value [2] was 50 µg/mL (≈ 96.9 µM), the MIC [2] was 25 to 50 µg/mL (≈ 48.5 to 96.9 µM) and the MIC [3] was 6.25 µg/mL (≈ 12.1 µM). For the same compound, the “Suppression of PRV protein” value [7] was “significantly suppressed” and the IC50 [8] was 13.3 ± 1.11 µM.
With `CC(C)=CCC/C(C)=C/C[C@@]12O[C@]1(CC=C(C)C)C(=O)c1c(O)cc(O)cc1C2=O` [Compound 5, A80915G] the “TI (therapeutic index = CC50/IC50)” value [5] was 2.05, the CC50 [6] was 16.7 ± 1.12 µM and the “MIC E. rhusiopathiae” value [2] was 25 µg/mL (≈ 60.9 µM). For the same compound, the MIC [2] was 25 to 50 µg/mL (≈ 60.9 to 122 µM), the MIC [3] was 25 µg/mL (≈ 60.9 µM) and the IC50 [8] was 8.26 ± 0.902 µM.
In the case of `CC(C)=CC[C@]12O[C@@]1(C/C=C(\C)CC/C=C(\C)C(=O)O)C(=O)c1cc(O)cc(O)c1C2=O` [Compound 6, A80915G-8″-acid], the MIC [1] is reported as 50 µg/mL (≈ 114 µM), the CC50 [6] is reported as 46.3 ± 7.36 µM and the “MIC E. rhusiopathiae” value [2] is reported as 25 µg/mL (≈ 56.8 µM). It also gave an MIC [2] of 25 to 50 µg/mL (≈ 56.8 to 114 µM), an MIC [3] of 50 µg/mL (≈ 114 µM) and an IC50 [8] of 26.5 ± 5 µM. The “MIC against Bacillus subtilis ATCC6633” value [9] was 64 µg/mL (≈ 145 µM).
With `CC(C)=CCC/C(C)=C/C[C@]1(O)C(=O)c2cc(O)cc(O)c2C(=O)[C@@]1(Cl)CC=C(C)C` [Compound 7, naphthomevalin] the “IC50 against PRV” value [5] was “did not display any apparent anti-PRV activity”, the “MIC S. aureus” value [1] was “potent activities” and the MIC [1] was under 0.625 µg/mL. The CC50 [6] was over 0.045 µM, the MIC [2] was 40 µg/mL (≈ 89.5 µM) and the MIC [3] was 20 µg/mL (≈ 44.7 µM). The IC50 [8] was over 90 µM.
Work on `CC1(C)S[C@@H]2[C@H](NC(=O)Cc3ccccc3)C(=O)N2[C@H]1C(=O)O` [Penicillin G, Penicillin G sodium salt, reference compound] yielded an MIC [2] of 50 µg/mL and an MIC [3] of 12.5 µg/mL.
With `NC(=O)c1ncn([C@@H]2O[C@H](CO)[C@@H](O)[C@H]2O)n1` [Ribavirin, reference compound] the “TI (therapeutic index = CC50/IC50)” value [5] was over 2.82, the CC50 [6] was over 164 µM and the IC50 [8] was 58 µM.
